Test results from the supplement of paper PMC11986102.

What was measured:
Test in all cases: OD600 after 10 h growth (baseline-subtracted); higher = more bacterial growth (less inhibition)
[1] = test system: Escherichia coli CFT073 (UPEC)
Experimental: (§1)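 Broth microdilution growth assay in Mueller Hinton broth, 100 µL in 96-well plates, inoculated 1:200 from OD600 0.1 overnight cultures by pinning, 37 °C with shaking at 800 rpm, 1:2 serial dilutions from 128 µg/mL (64 µg/mL for Ebastine). The read-out is OD600 after 10 h; curves were baseline-corrected by subtracting the minimum of the 2nd-4th measurements. Three biological replicates, with water and DMSO no-compound controls.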

Escherichia coli IAI1 = test system: Escherichia coli IAI1
Experimental: as §1

[2] = test system: Klebsiella pneumoniae MKP103
Experimental: as §1

[3] = test system: Pseudomonas aeruginosa PA14
Experimental: as §1

[4] = test system: Staphylococcus aureus Newman
Experimental: as §1

CC(=O)N[C@H](Cc1ccc2ccccc2c1)C(=O)N[C@H](Cc1ccc(Cl)cc1)C(=O)N[C@H](Cc1cccnc1)C(=O)N[C@@H](CO)C(=O)N[C@@H](Cc1ccc(O)cc1)C(=O)N[C@H](CCCNC(N)=O)C(=O)N[C@@H](CC(C)C)C(=O)N[C@@H](CCCNC(=N)N)C(=O)N1CCC[C@H]1C(=O)N[C@H](C)C(N)=O [Cetrorelix]
OD600 after 10 h growth
Conditions | Escherichia coli IAI1 | [1] | [2] | [3] | [4]
0.1 µg/mL | 0.865 | 0.804 | 0.674 | 0.741 | 1.08
0.2 µg/mL | 0.872 | 0.832 | 0.679 | 0.742 | 1.08
0.5 µg/mL | 0.829 | 0.8273 | 0.687 | 0.742 | 1.08
1 µg/mL | 0.828 | 0.812 | 0.693 | 0.727 | 1.1
2 µg/mL | 0.831 | 0.827 | 0.702 | 0.726 | 1.1
4 µg/mL | 0.821 | 0.83 | 0.701 | 0.736 | 1.11
8 µg/mL | 0.831 | 0.806 | 0.707 | 0.736 | 1.11
16 µg/mL | 0.837 | 0.81 | 0.712 | 0.754 | 1.117
32 µg/mL | 0.814 | 0.792 | 0.717 | 0.763 | 1.117
64 µg/mL | 0.8 | 0.807 | 0.69 | 0.749 | 1.09
128 µg/mL | 0.786 | 0.77 | 0.679 | 0.756 | 1.05

CC(C)(C)c1ccc(C(=O)CCCN2CCC(OC(c3ccccc3)c3ccccc3)CC2)cc1 [Ebastine]
OD600 after 10 h growth
Conditions | Escherichia coli IAI1 | [1] | [2] | [3] | [4]
0.05 µg/mL | 0.808 | 0.78 | 0.665 | 0.75 | 1.11
0.1 µg/mL | 0.807 | 0.781 | 0.667 | 0.752 | 1.08
0.2 µg/mL | 0.796 | 0.783 | 0.666 | 0.742 | 1.14
0.5 µg/mL | 0.793 | 0.789 | 0.666 | 0.744 | 1.06
1 µg/mL | 0.812 | 0.798 | 0.671 | 0.754 | 1.15
2 µg/mL | 0.816 | 0.792 | 0.681 | 0.842 | 1.1
4 µg/mL | 0.808 | 0.797 | 0.787 | 0.749 | 1.05
8 µg/mL | 0.81 | 0.803 | 0.678 | 0.743 | 1.03
16 µg/mL | 0.848 | 0.792 | 0.661 | 0.725 | 0.987
32 µg/mL | 0.778 | 0.775 | 0.647 | 0.697 | 0.991
64 µg/mL | 0.754 | 0.755 | 0.613 | 0.603 | 1.02

COc1cc2c(cc1Cc1cccc(Cl)c1F)c(=O)c(C(=O)O)cn2[C@H](CO)C(C)C [Elvitegravir]
OD600 after 10 h growth
Conditions | Escherichia coli IAI1 | [1] | [2] | [3] | [4]
0.1 µg/mL | 0.803 | 0.782 | 0.671 | 0.752 | 1.07
0.2 µg/mL | 0.846 | 0.768 | 0.666 | 0.747 | 1.07
0.5 µg/mL | 0.816 | 0.793 | 0.672 | 0.751 | 1.08
1 µg/mL | 0.808 | 0.81 | 0.664 | 0.748 | 1.08
2 µg/mL | 0.82 | 0.812 | 0.671 | 0.761 | 1.08
4 µg/mL | 0.818 | 0.804 | 0.675 | 0.756 | 0.309
8 µg/mL | 0.834 | 0.793 | 0.681 | 0.758 | 0.0327
16 µg/mL | 0.836 | 0.807 | 0.675 | 0.743 | 0.0197
32 µg/mL | 0.812 | 0.806 | 0.651 | 0.689 | 0.00533
64 µg/mL | 0.784 | 0.766 | 0.625 | 0.661 | 0
128 µg/mL | 0.771 | 0.733 | 0.596 | 0.588 | 0.013

Cc1c(Cl)c(C)[n+]([O-])c(Cl)c1-c1noc(-c2cc(O)c(O)c([N+](=O)[O-])c2)n1 [Opicapone]
OD600 after 10 h growth
Conditions | Escherichia coli IAI1 | [1] | [2] | [3] | [4]
0.1 µg/mL | 0.811 | 0.786 | 0.664 | 0.743 | 1.07
0.2 µg/mL | 0.855 | 0.788 | 0.668 | 0.743 | 1.07
0.5 µg/mL | 0.822 | 0.94 | 0.669 | 0.764 | 1.07
1 µg/mL | 0.815 | 0.787 | 0.681 | 0.829 | 1.07
2 µg/mL | 0.818 | 0.786 | 0.744 | 0.747 | 1.09
4 µg/mL | 0.802 | 0.872 | 0.791 | 0.81 | 1.18
8 µg/mL | 0.797 | 1.02 | 0.839 | 0.709 | 1.07
16 µg/mL | 0.798 | 0.787 | 0.781 | 0.677 | 0.413
32 µg/mL | 0.801 | 0.775 | 0.682 | 0.678 | 0.371
64 µg/mL | 0.792 | 0.796 | 0.669 | 0.658 | 0.466
128 µg/mL | 0.767 | 0.758 | 0.632 | 0.603 | 0.356

Cc1cn([C@H]2C[C@H](O)[C@@H](CO)O2)c(=O)[nH]c1=O [Thymidine]
OD600 after 10 h growth
Conditions | Escherichia coli IAI1 | [1] | [2] | [3] | [4]
0.1 µg/mL | 0.814 | 0.783 | 0.666 | 0.756 | 1.08
0.2 µg/mL | 0.952 | 0.956 | 0.669 | 0.899 | 1.07
0.5 µg/mL | 0.803 | 0.788 | 0.67 | 0.749 | 1.07
1 µg/mL | 0.802 | 0.794 | 0.666 | 0.748 | 1.22
2 µg/mL | 0.81 | 0.891 | 0.674 | 0.758 | 1.16
4 µg/mL | 0.808 | 0.89 | 0.69 | 0.853 | 1.39
8 µg/mL | 0.805 | 0.932 | 0.838 | 0.748 | 1.28
16 µg/mL | 0.804 | 0.873 | 0.773 | 0.745 | 1.23
32 µg/mL | 0.792 | 0.804 | 0.684 | 0.738 | 1.1
64 µg/mL | 0.782 | 0.786 | 0.672 | 0.718 | 1.09
128 µg/mL | 0.772 | 0.772 | 0.645 | 0.645 | 1.1

CC1=C(C)C(=O)C(CCCCCCCCCC[P+](c2ccccc2)(c2ccccc2)c2ccccc2)=CC1=O [Visomitin]
OD600 after 10 h growth
Conditions | Escherichia coli IAI1 | [1] | [2] | [3] | [4]
0.1 µg/mL | 0.805 | 0.786 | 0.672 | 0.762 | 1.08
0.2 µg/mL | 0.808 | 0.787 | 0.672 | 0.757 | 1.08
0.5 µg/mL | 0.8 | 0.785 | 0.676 | 0.757 | 1.09
1 µg/mL | 0.848 | 0.785 | 0.674 | 0.754 | 1.08
2 µg/mL | 0.815 | 0.818 | 0.679 | 0.856 | 0.0277
4 µg/mL | 0.795 | 0.809 | 0.686 | 0.821 | 0.0387
8 µg/mL | 0.769 | 0.777 | 0.697 | 0.733 | 0.0433
16 µg/mL | 0.045 | 0.0113 | 0.7 | 0.717 | 0.0257
32 µg/mL | 0.0307 | 0.007 | 0.196 | 0.681 | 0.0217
64 µg/mL | 0.032 | 0.0133 | 0.00967 | 0.0773 | 0.0133
128 µg/mL | 0.0327 | 0.024 | 0.0183 | 0.0423 | 0.025
